Values quoted from earlier work as cited in patent publication US20060127459A1, “Urogenital infection inhibition” (priority 2004, published 2006).

Tested on: pathogen adherence to epithelium cells
Conditions: positive control, shown in U.S. patent application Ser. No. 10/401,522

Question: For Hyaluronic acid (HLA) potassium salt, which “pathogen adherence to epithelium cells” value is on record?
Answer: The value was “inhibit pathogen adherence”.
